Measurements reported in publication PMC12337661, “PIEZO1 mechanical insensitivity in generalized lymphatic dysplasia with the potential for pharmacological rescue” (iScience, 2025).

How the values were obtained:
I2286T mPIEZO1 = target: T1, I2286T mPIEZO1 (Mus musculus, UniProt E2JF22, I2286T); test: Intracellular Ca2+ measurement (fura-2), T-REx-293 cells stably transfected; assay type: cell-based
T1 construct: expressed in transfected cells
Method: (§1) T-REx-293 cell line was transfected with pcDNA4/TO-mPIEZO1 constructs using Lipofectamine 2000 (Invitrogen) as above and treated with 200 μg.mL^−1 zeocin (InvivoGen) to select for stably transfected cells. At least two strongly expressing clonal cell lines were established and tested for each variant. All cell lines were maintained in Dulbecco’s Modified Eagle’s medium (Invitrogen) supplemented with 10% heat-inactivated fetal calf serum (Sigma-Aldrich), penicillin (50 units.mL^−1) and streptomycin (0.5 mg.mL^−1) (Sigma-Aldrich) and grown at 37°C in a humidified 5% CO2 incubator.
(§2) For intracellular Ca^2+ assays, cells were plated at 80–90% confluence in 96-well plates 24 h prior to recordings (6–8 × 10^4 cells per well). […] Cells were washed with SBS and incubated at room temperature for 20 min prior to recordings. Equal volumes of 2x concentrated compounds were injected to test for acute channel activation. Pre-incubation with compounds occurred during the 20 min prior to recordings. To expose cell membranes to hypo-osmolality, an equal volume of hypotonic SBS (containing only 35 mM NaCl) was injected onto the cells. Measurements were made on a fluorescence plate reader (Flexstation III, Molecular Devices) at room temperature (21 ± 2°C). Fura-2 was excited at 340 nm and 380 nm and emitted light collected at 510 nm, with measurements shown as the change in fluorescence (F) ratio (ΔF340/380).
(§3) KC41 (Dooku1) was prepared as described.[28] All purchased chemicals and solvents were used without further purification unless otherwise stated. All compounds were at least 95% pure by 1H NMR. 1H Nuclear Magnetic Resonance spectra were recorded at 500 MHz using a Bruker DRX 500 instrument or at 400 MHz using a Bruker DPX 400. 1H spectra are referenced based on the residual proton in the solvent (e.g., the CHCl3, 0.01% in 99.99% CDCl3). Coupling constants (J) are reported to the nearest 0.1 Hz. 13C NMR spectra were recorded at 125 MHz on 500 MHz spectrometers or at 100 MHz on 400 MHz spectrometers. LC-MS was performed on a Bruker Daltronics running a gradient of increasing acetonitrile (5–95%) in H2O both containing 0.1% formic acid at 1 mL.min^−1, on a short path C18 reverse phase column, detecting compounds with both a diode array detector and a Bruker mass spectrum analyser. HRMS was performed on a Bruker Daltonics micrOTOF using positive electrospray ionisation (ES+). Automated column chromatograph was carried out using a Biotage Isolera Four, using either Sfär Silica D or KP-Silica cartridges. HPLC was performed on an Agilent 1290 Infinity Series equipped with a UV detector and Hyperprep C18 reverse phase column. Key to NMR abbreviations: s (singlet), br s (broad singlet) d (doublet), dd (doublet of doublets), ddd (doublet of doublets of doublets), t (triplet), dt (doublet of triples), q (quartet), m (multiplet), ap. t (apparent triplet). For experiments, Yoda1 and its analogues were prepared as 10 mM stock solutions in 100% dimethyl sulfoxide (DMSO) before serial dilution in DMSO and final dilution in aqueous solution. Cells were exposed to 0.1% DMSO for all concentrations of the compounds from 0 to 10 μM.

E824V mPIEZO1 = target: T2, E824V mPIEZO1 (Mus musculus, UniProt E2JF22, E824V); test: as above; assay type: cell-based; details: normalized to the WT Yoda1 maximum response
T2 construct: expressed in transfected cells
Method: as §1, §2, §3

T1 sequence (E2JF22 whole entry I2286T): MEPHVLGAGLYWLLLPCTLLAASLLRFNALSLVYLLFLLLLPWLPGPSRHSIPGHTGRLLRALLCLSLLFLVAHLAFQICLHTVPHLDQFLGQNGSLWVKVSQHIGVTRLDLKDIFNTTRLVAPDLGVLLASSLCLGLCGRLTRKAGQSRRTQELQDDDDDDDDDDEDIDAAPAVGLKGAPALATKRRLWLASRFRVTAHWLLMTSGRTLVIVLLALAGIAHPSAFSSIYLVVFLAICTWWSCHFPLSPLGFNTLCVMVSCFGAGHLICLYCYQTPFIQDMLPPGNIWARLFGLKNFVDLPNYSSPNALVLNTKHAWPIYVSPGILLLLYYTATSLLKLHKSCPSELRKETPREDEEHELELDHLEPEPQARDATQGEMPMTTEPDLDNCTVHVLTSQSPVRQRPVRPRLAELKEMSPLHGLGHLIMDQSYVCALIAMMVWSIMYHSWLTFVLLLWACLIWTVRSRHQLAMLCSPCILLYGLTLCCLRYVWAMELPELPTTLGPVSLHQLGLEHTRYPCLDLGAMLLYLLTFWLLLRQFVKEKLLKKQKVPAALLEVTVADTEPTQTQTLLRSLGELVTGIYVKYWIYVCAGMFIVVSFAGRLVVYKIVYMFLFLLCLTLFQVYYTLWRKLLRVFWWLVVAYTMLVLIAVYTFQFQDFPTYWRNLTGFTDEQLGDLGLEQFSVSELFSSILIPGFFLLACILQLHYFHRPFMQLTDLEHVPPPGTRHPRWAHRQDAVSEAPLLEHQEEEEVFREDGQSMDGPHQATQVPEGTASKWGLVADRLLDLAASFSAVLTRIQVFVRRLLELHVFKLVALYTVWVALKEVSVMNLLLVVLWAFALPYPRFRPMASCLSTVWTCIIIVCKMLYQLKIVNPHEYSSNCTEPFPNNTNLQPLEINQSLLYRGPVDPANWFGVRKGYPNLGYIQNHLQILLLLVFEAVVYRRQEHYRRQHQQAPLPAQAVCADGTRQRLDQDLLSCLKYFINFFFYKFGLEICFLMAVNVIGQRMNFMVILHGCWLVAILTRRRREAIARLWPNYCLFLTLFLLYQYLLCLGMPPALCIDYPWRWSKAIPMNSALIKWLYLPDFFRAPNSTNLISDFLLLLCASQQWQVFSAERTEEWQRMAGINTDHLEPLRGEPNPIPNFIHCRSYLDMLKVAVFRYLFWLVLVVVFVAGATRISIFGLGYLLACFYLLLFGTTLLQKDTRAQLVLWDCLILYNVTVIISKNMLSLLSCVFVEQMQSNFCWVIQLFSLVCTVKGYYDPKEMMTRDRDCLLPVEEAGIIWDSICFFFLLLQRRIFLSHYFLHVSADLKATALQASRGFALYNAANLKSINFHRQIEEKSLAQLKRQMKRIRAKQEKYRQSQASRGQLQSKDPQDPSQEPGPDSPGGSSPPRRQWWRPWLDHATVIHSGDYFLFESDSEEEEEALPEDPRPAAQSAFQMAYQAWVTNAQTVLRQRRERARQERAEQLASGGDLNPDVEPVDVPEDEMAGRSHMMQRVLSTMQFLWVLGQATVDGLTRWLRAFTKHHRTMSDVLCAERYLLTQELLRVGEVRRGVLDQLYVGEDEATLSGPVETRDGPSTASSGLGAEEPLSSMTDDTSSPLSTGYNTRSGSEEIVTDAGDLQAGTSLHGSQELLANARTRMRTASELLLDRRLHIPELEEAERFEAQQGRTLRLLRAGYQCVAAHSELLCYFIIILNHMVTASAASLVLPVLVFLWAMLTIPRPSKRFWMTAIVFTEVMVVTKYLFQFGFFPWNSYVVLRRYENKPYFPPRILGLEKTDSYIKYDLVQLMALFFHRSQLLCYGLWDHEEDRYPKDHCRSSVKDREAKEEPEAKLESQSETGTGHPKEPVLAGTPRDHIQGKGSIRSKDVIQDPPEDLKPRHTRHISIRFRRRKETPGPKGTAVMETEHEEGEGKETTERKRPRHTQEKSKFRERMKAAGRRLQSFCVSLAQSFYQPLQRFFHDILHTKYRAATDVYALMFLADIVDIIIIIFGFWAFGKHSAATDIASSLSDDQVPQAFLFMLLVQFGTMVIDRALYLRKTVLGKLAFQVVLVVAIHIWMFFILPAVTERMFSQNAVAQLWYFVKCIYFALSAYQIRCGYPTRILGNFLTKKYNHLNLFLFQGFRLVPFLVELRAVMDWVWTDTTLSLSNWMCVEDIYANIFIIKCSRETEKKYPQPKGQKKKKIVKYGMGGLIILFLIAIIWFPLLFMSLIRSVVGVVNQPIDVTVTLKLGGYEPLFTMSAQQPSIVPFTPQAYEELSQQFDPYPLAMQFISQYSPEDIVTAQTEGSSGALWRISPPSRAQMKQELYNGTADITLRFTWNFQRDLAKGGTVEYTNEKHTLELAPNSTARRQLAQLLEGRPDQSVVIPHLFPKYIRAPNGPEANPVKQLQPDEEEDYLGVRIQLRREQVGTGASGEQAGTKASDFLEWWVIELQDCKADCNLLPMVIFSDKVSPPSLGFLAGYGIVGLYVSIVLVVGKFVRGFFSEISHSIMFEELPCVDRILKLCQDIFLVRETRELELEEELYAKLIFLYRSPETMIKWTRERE
T2 sequence (E2JF22 whole entry E824V): as the sequence (E2JF22 whole entry I2286T) above, with E824V, T2286I counted along it

Question: With `O=C(O)c1ccc(-c2cnc(SCc3c(Cl)cccc3Cl)s2)cc1` [Yoda2b, 4-(2-([(2,6-Dichlorophenyl)methyl]sulfanyl)-1,3-thiazol-5-yl)benzoic acid] as the compound, how does the “Mean (ΔFratio)” value (I2286T mPIEZO1; 0.3 µM, time 0 s) read?
Answer: Its value is 0.00239.

Question: What about the “Mean (ΔFratio)” value (I2286T mPIEZO1; 0.3 µM, time 5 s) of the same compound?
Answer: Its value is -0.00843.

Question: And the “Mean (ΔFratio)” value (I2286T mPIEZO1; 0.3 µM, time 10 s)?
Answer: The value was 0.00738.

Question: And the “Mean (ΔFratio)” value (I2286T mPIEZO1; 0.3 µM, time 15 s)?
Answer: The value was -3.95E-05.

Question: What about the “Mean (ΔFratio)” value (I2286T mPIEZO1; 0.3 µM, time 20 s) of the same compound?
Answer: The value was -9.74E-04.

Question: And the “Mean (ΔFratio)” value (I2286T mPIEZO1; 0.3 µM, time 25 s)?
Answer: The value was -3.25E-04.

Question: What about the “Mean (ΔFratio)” value (I2286T mPIEZO1; 0.3 µM, time 30 s) of the same compound?
Answer: Its value is -0.07905.

Question: What about the “Mean (ΔFratio)” value (I2286T mPIEZO1; 0.3 µM, time 35 s) of the same compound?
Answer: The value was -0.08536.

Question: What about the “Mean (ΔFratio)” value (I2286T mPIEZO1; 0.3 µM, time 40 s) of the same compound?
Answer: Its value is 0.2313.

Question: And the “Mean (ΔFratio)” value (I2286T mPIEZO1; 0.3 µM, time 45 s)?
Answer: The value was 0.4546.

Question: What about the “Mean (ΔFratio)” value (I2286T mPIEZO1; 0.3 µM, time 50 s) of the same compound?
Answer: Its value is 0.5954.

Question: What about the “Mean (ΔFratio)” value (I2286T mPIEZO1; 0.3 µM, time 55 s) of the same compound?
Answer: The value was 0.6989.

Question: And the “Mean (ΔFratio)” value (I2286T mPIEZO1; 0.3 µM, time 60 s)?
Answer: Its value is 0.7448.

Question: What about the “Mean (ΔFratio)” value (I2286T mPIEZO1; 0.3 µM, time 65 s) of the same compound?
Answer: The value was 0.7353.

Question: What about the “Mean (ΔFratio)” value (I2286T mPIEZO1; 0.3 µM, time 70 s) of the same compound?
Answer: Its value is 0.7286.

Question: What about the “Mean (ΔFratio)” value (I2286T mPIEZO1; 0.3 µM, time 75 s) of the same compound?
Answer: The value was 0.7236.

Question: What about the “Mean (ΔFratio)” value (I2286T mPIEZO1; 0.3 µM, time 80 s) of the same compound?
Answer: The value was 0.681.

Question: What about the “Mean (ΔFratio)” value (I2286T mPIEZO1; 0.3 µM, time 85 s) of the same compound?
Answer: The value was 0.6794.

Question: What about the “Mean (ΔFratio)” value (I2286T mPIEZO1; 0.3 µM, time 90 s) of the same compound?
Answer: Its value is 0.6567.

Question: What about the “Mean (ΔFratio)” value (I2286T mPIEZO1; 0.3 µM, time 95 s) of the same compound?
Answer: The value was 0.6006.

Question: And the “Mean (ΔFratio)” value (I2286T mPIEZO1; 0.3 µM, time 100 s)?
Answer: The value was 0.6101.

Question: What about the “Mean (ΔFratio)” value (I2286T mPIEZO1; 0.3 µM, time 105 s) of the same compound?
Answer: The value was 0.603.

Question: What about the “Mean (ΔFratio)” value (I2286T mPIEZO1; 0.3 µM, time 110 s) of the same compound?
Answer: The value was 0.5805.

Question: And the “Mean (ΔFratio)” value (I2286T mPIEZO1; 0.3 µM, time 115 s)?
Answer: Its value is 0.5587.

Question: What about the “Mean (ΔFratio)” value (I2286T mPIEZO1; 0.3 µM, time 120 s) of the same compound?
Answer: Its value is 0.5669.

Question: What about the “Mean (ΔFratio)” value (I2286T mPIEZO1; 0.3 µM, time 125 s) of the same compound?
Answer: The value was 0.5131.

Question: What about the “Mean (ΔFratio)” value (I2286T mPIEZO1; 0.3 µM, time 130 s) of the same compound?
Answer: The value was 0.5257.

Question: And the “Mean (ΔFratio)” value (I2286T mPIEZO1; 3 µM, time 0 s)?
Answer: Its value is -0.00226.

Question: What about the “Mean (ΔFratio)” value (I2286T mPIEZO1; 3 µM, time 5 s) of the same compound?
Answer: Its value is 0.01302.

Question: And the “Mean (ΔFratio)” value (I2286T mPIEZO1; 3 µM, time 10 s)?
Answer: The value was -0.01316.

Question: And the “Mean (ΔFratio)” value (I2286T mPIEZO1; 3 µM, time 15 s)?
Answer: Its value is -0.00422.

Question: What about the “Mean (ΔFratio)” value (I2286T mPIEZO1; 3 µM, time 20 s) of the same compound?
Answer: The value was 0.00798.

Question: What about the “Mean (ΔFratio)” value (I2286T mPIEZO1; 3 µM, time 25 s) of the same compound?
Answer: Its value is -0.00136.

Question: What about the “Mean (ΔFratio)” value (I2286T mPIEZO1; 3 µM, time 30 s) of the same compound?
Answer: The value was -0.4575.

Question: And the “Mean (ΔFratio)” value (I2286T mPIEZO1; 3 µM, time 35 s)?
Answer: Its value is -0.0464.

Question: And the “Mean (ΔFratio)” value (I2286T mPIEZO1; 3 µM, time 40 s)?
Answer: The value was 0.8681.

Question: What about the “Mean (ΔFratio)” value (I2286T mPIEZO1; 3 µM, time 45 s) of the same compound?
Answer: The value was 1.381.

Question: What about the “Mean (ΔFratio)” value (I2286T mPIEZO1; 3 µM, time 50 s) of the same compound?
Answer: Its value is 1.657.

Question: What about the “Mean (ΔFratio)” value (I2286T mPIEZO1; 3 µM, time 55 s) of the same compound?
Answer: Its value is 1.797.

Question: And the “Mean (ΔFratio)” value (I2286T mPIEZO1; 3 µM, time 60 s)?
Answer: The value was 1.789.

Question: And the “Mean (ΔFratio)” value (I2286T mPIEZO1; 3 µM, time 65 s)?
Answer: Its value is 1.7806.

Question: And the “Mean (ΔFratio)” value (I2286T mPIEZO1; 3 µM, time 70 s)?
Answer: Its value is 1.778.

Question: And the “Mean (ΔFratio)” value (I2286T mPIEZO1; 3 µM, time 75 s)?
Answer: The value was 1.702.

Question: And the “Mean (ΔFratio)” value (I2286T mPIEZO1; 3 µM, time 80 s)?
Answer: The value was 1.669.

Question: And the “Mean (ΔFratio)” value (I2286T mPIEZO1; 3 µM, time 85 s)?
Answer: Its value is 1.657.

Question: And the “Mean (ΔFratio)” value (I2286T mPIEZO1; 3 µM, time 90 s)?
Answer: Its value is 1.535.

Question: And the “Mean (ΔFratio)” value (I2286T mPIEZO1; 3 µM, time 95 s)?
Answer: The value was 1.511.

Question: And the “Mean (ΔFratio)” value (I2286T mPIEZO1; 3 µM, time 100 s)?
Answer: The value was 1.421.

Question: And the “Mean (ΔFratio)” value (I2286T mPIEZO1; 3 µM, time 105 s)?
Answer: Its value is 1.3863.

Question: And the “Mean (ΔFratio)” value (I2286T mPIEZO1; 3 µM, time 110 s)?
Answer: Its value is 1.364.

Question: And the “Mean (ΔFratio)” value (I2286T mPIEZO1; 3 µM, time 115 s)?
Answer: The value was 1.304.

Question: What about the “Mean (ΔFratio)” value (I2286T mPIEZO1; 3 µM, time 120 s) of the same compound?
Answer: Its value is 1.27.

Question: And the “Mean (ΔFratio)” value (I2286T mPIEZO1; 3 µM, time 125 s)?
Answer: The value was 1.258.

Question: What about the “Mean (ΔFratio)” value (I2286T mPIEZO1; 3 µM, time 130 s) of the same compound?
Answer: The value was 1.2123.

Question: And the EC50 (I2286T mPIEZO1; 1.5 min exposure)?
Answer: The EC50 was 0.71 µM.

Question: And the “Mean (concentration-response, Figure 3l)” value (I2286T mPIEZO1; 1.5 min exposure, 0.01 µM)?
Answer: The value was 0.00606.

Question: And the “Mean (concentration-response, Figure 3l)” value (I2286T mPIEZO1; 1.5 min exposure, 0.03 µM)?
Answer: The value was 0.01869.

Question: What about the “Mean (concentration-response, Figure 3l)” value (I2286T mPIEZO1; 1.5 min exposure, 0.1 µM) of the same compound?
Answer: The value was 0.08252.

Question: And the “Mean (concentration-response, Figure 3l)” value (I2286T mPIEZO1; 1.5 min exposure, 0.3 µM)?
Answer: The value was 0.2937.

Question: And the “Mean (concentration-response, Figure 3l)” value (I2286T mPIEZO1; 1.5 min exposure, 1 µM)?
Answer: The value was 0.643.

Question: And the “Mean (concentration-response, Figure 3l)” value (I2286T mPIEZO1; 1.5 min exposure, 3 µM)?
Answer: Its value is 0.8962.

Question: And the “Mean (concentration-response, Figure 3l)” value (I2286T mPIEZO1; 1.5 min exposure, 10 µM)?
Answer: The value was 1.056.

Question: What about the “side-by-side comparison of channel activation with Yoda1” value (I2286T mPIEZO1; same 96-well plate) of the same compound?
Answer: The value was “more effective at activating I2286T channels than Yoda1”.

Question: What about the EC50 (E824V mPIEZO1) of the same compound?
Answer: The EC50 was 0.76 µM.
